Experimental data reported in paper PMC4680847 (Structure (London, England : 1993), 2015).
Residue numbers refer to the chain shown, from its start. Where two headings read alike, the source gives them in different places.

Legend:
Format in all cases: binding
RNase A [1] = molecular target: T1, RNase A (Bos taurus, UniProt P61823); experiment: ITC
T1 sequence (P61823 27-150): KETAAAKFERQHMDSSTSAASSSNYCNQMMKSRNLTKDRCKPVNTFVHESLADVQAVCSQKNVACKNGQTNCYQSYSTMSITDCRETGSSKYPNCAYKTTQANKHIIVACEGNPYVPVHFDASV

RNase A [2] = molecular target: T2, RNase A (Bos taurus, UniProt P61823, A135G); experiment: crystal structure
T2 sequence (P61823 27-150 A135G): T1 sequence (P61823 27-150) with A109G

RNase A [3] = molecular target: T2, RNase A; experiment: crystal structure; remark: listed apart in the source

Row | SMILES | Kd (RNase A [1]) [µM] | Kd (RNase A [2]) [µM] | Kd (RNase A [3]) [µM]
1 | O=c1ccn([C@@H]2O[C@H](CO)[C@@H](OP(=O)(O)O)[C@H]2O)c(=O)[nH]1 [3′-UMP] | 67 ± 6 | 50 ± 8 | –
2 | Nc1ncnc2c1ncn2[C@@H]1O[C@H](COP(=O)(O)O)[C@@H](O)[C@H]1O [5′-AMP] | 105 ± 1 | – | 440 ± 26
